US20210346392A1, “PHARMACEUTICAL COMPOSITION FOR ORAL ADMINISTRATION” (ASTELLAS PHARMA INC., priority 2018, published 2021)
In brackets after ≈: the same amount, converted by molar mass. Like-named read-outs stand apart in the source and are kept apart here.

Columns and labels:
[1] = Storage stability: total amount of related substances by HPLC (Experimental Example 1); type: physicochemical; settings: stored at 40° C., 75% RH for 1 month, glass bottle, covered
Description: The storage stability as used herein can be evaluated by measuring the change in the amount of related substances derived from compound A when the pharmaceutical composition for oral administration is stored under certain storage conditions. For example, after the pharmaceutical composition for oral administration is stored under certain conditions, the total amount of related substances of compound A contained in the pharmaceutical composition for oral administration, or a specific related substance of compound A is measured. […] The percentage (%) of the total peak area of related substances with respect to the sum of all peak areas including the peak area of compound A are calculated, and is compared with the value before storage to calculate the amount of change (the amount of increase)(%). Alternatively, as shown in Experimental Example 3 described below, the percentage (%) of the peak area of related substance A with respect to the sum of all peak areas obtained in the same manner is calculated, and it is also possible to evaluate the storage stability by the change over time of related substance A.
The physical mixtures obtained in Example 1 and Comparative Example 1 were placed in glass bottles, covered, and stored at 40° C., 75% RH for 1 month, and the total amount of related substances before and after storage was measured by the method described below. […]

[2] = Solubility of compound A in Japanese Pharmacopoeia dissolution test fluids; type: physicochemical; settings: for solubility: Seventeenth Edition
Description: When compound A was formulated, the solubility of compound A was confirmed based on a Dissolution Test of the Japanese Pharmacopoeia, Seventeenth Edition, and there was a large difference between an acidic pH range and a neutral pH range.

Increased amount of total related substances (%) (n = 2) [1]: 0.00%
Increased amount of total related substances (%) (n = 2) ([1]; listed as compound A): did not increase
difference of solubility between acidic and neutral pH range ([2]; first fluid vs second fluid): approximately 30 times
solubility ([2]; pH 1.2, simulated gastric fluid, first fluid for a Dissolution Test of the Japanese Pharmacopoeia, read-out: solubility in an acidic pH range): ~41 µg/mL (≈ 101 µM)
solubility ([2]; pH 6.8, aqueous buffer, second fluid for a Dissolution Test of the Japanese Pharmacopoeia, read-out: solubility at a neutral pH range): ~1.2 µg/mL (≈ 2.94 µM)
SMILES: Cc1nc(CN2CCS(=O)(=O)CC2)c2cc(C3CCC(C)(C)CC3)sc2n1 [Compound A, 6-(4,4-Dimethylcyclohexyl)-4-[(1,1-dioxo-1λ^6-thiomorpholin-4-yl)methyl]-2-methylthieno[2,3-d]pyrimidine]
